From patent publication US9073855B2, “BCL-2 selective apoptosis-inducing agents for the treatment of cancer and immune diseases” (AbbVie Inc., priority 2008, dated 2015)

Legend:
GST-Bcl-2 = GST-Bcl-2 (Homo sapiens, UniProt P10415); experiment: TR-FRET binding assay, GST-Bcl-2 with F-Bak peptide probe; settings: TR-FRET Binding Affinity, GST-Bcl-2, F-Bak peptide probe
Summary of the method: (§1)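 Competitive TR-FRET: GST-fusion protein, fluorescent Bak peptide probe and Tb-labelled anti-GST antibody incubated with compound dilution series (starting 50 μM as 2× stock, 10% DMSO) for 3 h at RT. Excitation 340/35 nm; Ki derived via Wang's exact competitive-binding equation.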

GST-Bcl-XL = GST-Bcl-XL (Homo sapiens, UniProt Q07817); experiment: TR-FRET binding assay, GST-Bcl-XL with F-Bak peptide probe; settings: TR-FRET Binding Affinity, GST-Bcl-XL, F-Bak peptide probe
Summary of the method: as §1

FL5.12/Bcl-2 cells = experiment: FL5.12/Bcl-2 cell viability assay under IL-3 withdrawal (CellTitre Glo); type: cell-based, murine; settings: Mus musculus, IL-3 withdrawn 48 hrs, then 24 hrs with compound
Summary of the method: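 Cells (1×10^6/ml) are washed, resuspended in medium lacking WEHI-3B conditioned medium as IL-3 source, and held 48 hrs. Compounds are then added at a range of concentrations for 24 hrs, after which CellTitre Glo reports viability.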

GST-Bcl-XL, sequence (Q07817 whole entry): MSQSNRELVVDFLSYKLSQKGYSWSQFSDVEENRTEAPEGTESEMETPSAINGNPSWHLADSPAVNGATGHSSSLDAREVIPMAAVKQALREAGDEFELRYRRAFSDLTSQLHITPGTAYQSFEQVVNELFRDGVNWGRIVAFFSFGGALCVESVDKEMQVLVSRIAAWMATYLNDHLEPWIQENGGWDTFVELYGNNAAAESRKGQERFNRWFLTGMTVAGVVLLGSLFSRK
GST-Bcl-2, sequence (P10415 whole entry, the tested form may be a part): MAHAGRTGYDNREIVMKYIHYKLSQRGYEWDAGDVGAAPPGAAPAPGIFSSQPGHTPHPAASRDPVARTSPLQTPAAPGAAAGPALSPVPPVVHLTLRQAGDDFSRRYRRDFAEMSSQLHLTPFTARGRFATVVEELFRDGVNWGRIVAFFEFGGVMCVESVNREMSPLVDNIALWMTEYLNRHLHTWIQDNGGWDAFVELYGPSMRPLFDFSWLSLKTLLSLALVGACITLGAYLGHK

| SMILES | Ki (GST-Bcl-2) [nM] | Ki (GST-Bcl-XL) [nM] | EC50 (FL5.12/Bcl-2 cells) [nM] |
| --- | --- | --- | --- |
| CC1(C)CCC(CN2CCN(c3ccc(C(=O)NS(=O)(=O)c4ccc(NCC5(N6CCOCC6)CCCCC5)c([N+](=O)[O-])c4)c(Oc4ccc5[nH]ccc5c4)c3)CC2)=C(c2ccc(Cl)cc2)C1 [Example 229, 4-(4-{[2-(4-chlorophenyl)-4,4-dimethylcyclohex-1-en-1-yl]methyl}piperazin-1-yl)-2-(1H-indol-5-yloxy)-N-[(4-{[(1-morpholin-4-ylcyclohexyl)methyl]amino}-3-nitrophenyl)sulfonyl]benzamide] | 49.4 | > 660 | > 500 |
| CC1(C)CCC(CN2CCN(c3ccc(C(=O)NS(=O)(=O)c4ccc(NC5CCN(Cc6nccs6)CC5)c([N+](=O)[O-])c4)c(Oc4ccc5[nH]ccc5c4)c3)CC2)=C(c2ccc(Cl)cc2)C1 [Example 230, 4-(4-{[2-(4-chlorophenyl)-4,4-dimethylcyclohex-1-en-1-yl]methyl}piperazin-1-yl)-2-(1H-indol-5-yloxy)-N-[(3-nitro-4-{[1-(1,3-thiazol-2-ylmethyl)piperidin-4-yl]amino}phenyl)sulfonyl]benzamide] | 8.82 | > 660 | 178 |
| CC1(C)CCC(CN2CCN(c3ccc(C(=O)NS(=O)(=O)c4ccc(NC5CCN(Cc6cscn6)CC5)c([N+](=O)[O-])c4)c(Oc4ccc5[nH]ccc5c4)c3)CC2)=C(c2ccc(Cl)cc2)C1 [Example 231, 4-(4-{[2-(4-chlorophenyl)-4,4-dimethylcyclohex-1-en-1-yl]methyl}piperazin-1-yl)-2-(1H-indol-5-yloxy)-N-[(3-nitro-4-{[1-(1,3-thiazol-4-ylmethyl)piperidin-4-yl]amino}phenyl)sulfonyl]benzamide] | 0.918 | > 660 | 50.9 |
| CC1(C)CCC(CN2CCN(c3ccc(C(=O)NS(=O)(=O)c4ccc(NCC5(CO)CCOCC5)c([N+](=O)[O-])c4)c(Oc4ccc5[nH]ccc5c4)c3)CC2)=C(c2ccc(Cl)cc2)C1 [Example 232, 4-(4-{[2-(4-chlorophenyl)-4,4-dimethylcyclohex-1-en-1-yl]methyl}piperazin-1-yl)-N-{[4-({[4-(hydroxymethyl)tetrahydro-2H-pyran-4-yl]methyl}amino)-3-nitrophenyl]sulfonyl}-2-(1H-indol-5-yloxy)benzamide] | 0.46 | 197 | 12.3 |
| CC1(C)CCC(CN2CCN(c3ccc(C(=O)NS(=O)(=O)c4ccc(NCC5(O)CCCCC5)c([N+](=O)[O-])c4)c(Oc4ccc5[nH]ccc5c4)c3)CC2)=C(c2ccc(Cl)cc2)C1 [Example 238, 4-(4-{[2-(4-chlorophenyl)-4,4-dimethylcyclohex-1-en-1-yl]methyl}piperazin-1-yl)-N-[(4-{[(1-hydroxycyclohexyl)methyl]amino}-3-nitrophenyl)sulfonyl]-2-(1H-indol-5-yloxy)benzamide] | 0.43 | > 660 | 59 |
| COCCNc1ccc(S(=O)(=O)NC(=O)c2ccc(N3CCN(CC4=C(c5ccc(Cl)cc5)CC(C)(C)CC4)CC3)cc2Oc2cccc3[nH]ccc23)cc1[N+](=O)[O-] [Example 239, 4-(4-{[2-(4-chlorophenyl)-4,4-dimethylcyclohex-1-en-1-yl]methyl}piperazin-1-yl)-2-(1H-indol-4-yloxy)-N-({4-[(2-methoxyethyl)amino]-3-nitrophenyl}sulfonyl)benzamide] | 0.252 | 108 | 17.6 |
| CC1(C)CCC(CN2CCN(c3ccc(C(=O)NS(=O)(=O)c4ccc(NC5(CO)CCOCC5)c([N+](=O)[O-])c4)c(Oc4ccc5[nH]ccc5c4)c3)CC2)=C(c2ccc(Cl)cc2)C1 [Example 240, 4-(4-{[2-(4-chlorophenyl)-4,4-dimethylcyclohex-1-en-1-yl]methyl}piperazin-1-yl)-N-[(4-{[4-(hydroxymethyl)tetrahydro-2H-pyran-4-yl]amino}-3-nitrophenyl)sulfonyl]-2-(1H-indol-5-yloxy)benzamide] | 0.83 | > 660 | 209 |
